The values below come from ChEMBL document CHEMBL4017444, “Development of N-hydroxycinnamamide-based HDAC inhibitors with improved HDAC inhibitory activity and in vitro antitumor activity” (Bioorg Med Chem, 2017).

Histone deacetylase 1, sequence (Q13547 whole entry): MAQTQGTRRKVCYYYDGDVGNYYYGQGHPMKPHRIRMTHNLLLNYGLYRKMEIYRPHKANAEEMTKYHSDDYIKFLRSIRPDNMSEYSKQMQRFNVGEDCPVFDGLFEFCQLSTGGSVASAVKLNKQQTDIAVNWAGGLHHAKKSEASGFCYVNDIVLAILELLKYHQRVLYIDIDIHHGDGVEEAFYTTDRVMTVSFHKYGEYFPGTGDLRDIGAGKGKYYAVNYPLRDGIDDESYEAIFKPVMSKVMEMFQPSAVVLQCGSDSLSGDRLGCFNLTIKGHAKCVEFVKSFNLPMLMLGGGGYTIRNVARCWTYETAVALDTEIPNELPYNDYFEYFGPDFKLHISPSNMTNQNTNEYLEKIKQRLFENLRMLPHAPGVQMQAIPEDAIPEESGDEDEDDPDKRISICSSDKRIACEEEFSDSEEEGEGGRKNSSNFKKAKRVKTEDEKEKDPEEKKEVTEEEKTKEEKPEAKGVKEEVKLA
Histone deacetylase 3, sequence (O15379 whole entry): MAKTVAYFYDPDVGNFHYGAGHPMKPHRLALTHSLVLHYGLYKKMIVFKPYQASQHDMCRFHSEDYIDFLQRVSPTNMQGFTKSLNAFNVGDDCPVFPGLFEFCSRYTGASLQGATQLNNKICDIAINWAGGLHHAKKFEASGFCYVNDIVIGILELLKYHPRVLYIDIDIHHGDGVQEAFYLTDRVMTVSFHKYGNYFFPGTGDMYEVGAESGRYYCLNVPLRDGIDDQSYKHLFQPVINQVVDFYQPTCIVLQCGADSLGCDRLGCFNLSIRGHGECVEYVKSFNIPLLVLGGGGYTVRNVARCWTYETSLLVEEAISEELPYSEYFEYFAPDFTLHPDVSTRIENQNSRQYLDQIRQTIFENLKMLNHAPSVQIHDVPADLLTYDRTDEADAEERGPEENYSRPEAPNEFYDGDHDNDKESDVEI
Histone deacetylase 2, sequence (Q92769 whole entry): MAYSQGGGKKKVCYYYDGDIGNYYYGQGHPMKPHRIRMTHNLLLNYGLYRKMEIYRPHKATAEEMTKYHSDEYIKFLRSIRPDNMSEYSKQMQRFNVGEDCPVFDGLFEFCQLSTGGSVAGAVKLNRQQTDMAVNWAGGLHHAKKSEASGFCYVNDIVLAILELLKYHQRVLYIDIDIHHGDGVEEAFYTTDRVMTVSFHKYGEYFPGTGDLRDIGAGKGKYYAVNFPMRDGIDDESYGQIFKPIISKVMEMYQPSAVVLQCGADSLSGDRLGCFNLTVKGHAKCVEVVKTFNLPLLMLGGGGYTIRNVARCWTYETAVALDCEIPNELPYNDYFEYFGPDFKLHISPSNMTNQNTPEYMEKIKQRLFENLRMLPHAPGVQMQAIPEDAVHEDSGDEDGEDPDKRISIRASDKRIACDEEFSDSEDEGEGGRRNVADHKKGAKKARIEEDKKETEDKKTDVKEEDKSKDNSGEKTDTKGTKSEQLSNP

The first assay addresses Histone deacetylase 3 (Homo sapiens, UniProt O15379). As to the kind of experiment: Inhibition of HDAC3 (unknown origin) using Ac-Leu-GlyLys(Ac)-AMC as substrate preincubated for 5 mins followed by substrate addition measured after 30 mins by fluorescence assay.
Conditions: not given
As to `COc1ccc(C(=O)N[C@H](COc2ccc(/C=C/C(=O)NO)cc2OC)Cc2c[nH]c3ccccc23)cc1`, it took 7.1 nM to reach half-maximal inhibition (IC50).

Tested on in the next assay: not listed separately
As to the kind of experiment: Inhibition of HDAC in human HeLa cell nuclear extracts using (Boc-Lys(Ac)-AMC as substrate preincubated for 5 mins followed by substrate addition measured after 30 mins by fluorescence assay. The class given is cell-based.
Conditions: not given
Turning to `COc1cc(/C=C/C(=O)NO)ccc1OC[C@H](Cc1c[nH]c2ccccc12)NC(=O)c1ccc(F)cc1`, it took 48.6 nM to reach half-maximal inhibition (IC50). As for `COc1cc(/C=C/C(=O)NO)ccc1OC[C@H](Cc1c[nH]c2ccccc12)NC(=O)c1ccccc1[N+](=O)[O-]`, the half-inhibitory concentration (IC50) – broadly, the concentration that gives 50% inhibition – came out at 75.7 nM. Still for that read-out and setting: the figure for `COc1cc(/C=C/C(=O)NO)ccc1OC[C@H](Cc1c[nH]c2ccccc12)NC(=O)c1cccc(C)c1` is 24.2 nM; for `COc1cc(/C=C/C(=O)NO)ccc1OC[C@H](Cc1c[nH]c2ccccc12)NC(=O)c1ccccc1F` it is 76.5 nM; for `COc1cc(/C=C/C(=O)NO)ccc1OC[C@H](Cc1c[nH]c2ccccc12)NC(=O)c1ccc(Cl)cc1Cl` it is 95 nM. Molecule `COc1cc(/C=C/C(=O)NO)ccc1OC[C@H](Cc1c[nH]c2ccccc12)NC(=O)CCc1ccccc1` returned an IC50 of 21.7 nM. In turn, `COc1cc(/C=C/C(=O)NO)ccc1OC[C@H](Cc1c[nH]c2ccccc12)NC(=O)c1cccc(Cl)c1` registered a concentration for half-maximal inhibition (IC50) of 14.4 nM. As for `COc1ccc(C(=O)N[C@H](COc2ccc(/C=C/C(=O)NO)cc2OC)Cc2c[nH]c3ccccc23)cc1`, the IC50 is 9.6 nM.

`COc1cc(/C=C/C(=O)NO)ccc1OC[C@H](Cc1c[nH]c2ccccc12)NC(=O)c1ccc(NC(C)=O)cc1O` yielded a half-maximal inhibitory concentration (IC50) of 47.1 nM. Take `COc1cc(/C=C/C(=O)NO)ccc1OC[C@H](Cc1c[nH]c2ccccc12)NC(=O)c1cccc(Br)c1`: the IC50 turned out to be 19.5 nM.

`COc1cc(/C=C/C(=O)NO)ccc1OC[C@H](Cc1c[nH]c2ccccc12)NC(=O)c1ccc([N+](=O)[O-])cc1` registered an IC50 of 60.7 nM. In turn, `COc1cc(/C=C/C(=O)NO)ccc1OC[C@H](Cc1c[nH]c2ccccc12)NC(=O)c1ccc(Br)cc1` gave an IC50 of 12.1 nM.

The molecule `COc1cc(/C=C/C(=O)NO)ccc1OC[C@H](Cc1c[nH]c2ccccc12)NC(=O)CCCc1ccccc1` yielded a 50% inhibitory concentration (IC50) of 42.4 nM. In turn, `COc1cc(/C=C/C(=O)NO)ccc1OC[C@H](Cc1c[nH]c2ccccc12)NC(=O)c1ccc(C)cc1` gave a half-inhibitory concentration (IC50) of 8.1 nM. Consider `COc1cc(/C=C/C(=O)NO)ccc1OC[C@H](Cc1c[nH]c2ccccc12)NC(=O)c1ccccc1C`, for which inhibition was half-maximal at 102 nM (IC50). On the same count and under the same terms, the figure for `COc1cc(/C=C/C(=O)NO)ccc1OC[C@H](Cc1c[nH]c2ccccc12)NC(=O)c1cccc(F)c1` is 60 nM. The same measure, in the same setting: the figure for `COc1cc(/C=C/C(=O)NO)ccc1OC[C@H](Cc1c[nH]c2ccccc12)NC(=O)c1ccccc1Br` is 62.2 nM; for `COc1cc(/C=C/C(=O)NO)ccc1OC[C@H](Cc1c[nH]c2ccccc12)NC(=O)Cc1ccccc1` it is 54.8 nM. `COc1cc(/C=C/C(=O)NO)ccc1OC[C@H](Cc1c[nH]c2ccccc12)NC(=O)c1ccccc1` had a half-inhibitory concentration (IC50) of 15.8 nM.

Molecule `COc1cccc(C(=O)N[C@H](COc2ccc(/C=C/C(=O)NO)cc2OC)Cc2c[nH]c3ccccc23)c1` came in with a half-maximal inhibitory concentration (IC50) of 14.1 nM. The molecule `COc1cc(/C=C/C(=O)NO)ccc1OC[C@H](Cc1c[nH]c2ccccc12)NC(=O)c1ccccc1OC` displayed a 50% inhibitory concentration (IC50) of 60 nM. `COc1cc(/C=C/C(=O)NO)ccc1OC[C@H](Cc1c[nH]c2ccccc12)NC(=O)c1ccc(Cl)cc1` gave an IC50 of 23.3 nM. In the case of `COc1cc(/C=C/C(=O)NO)ccc1OC[C@H](Cc1c[nH]c2ccccc12)NC(=O)c1cccc([N+](=O)[O-])c1`, half-maximal inhibition (IC50) was put at 34.4 nM. The molecule `COc1cc(/C=C/C(=O)NO)ccc1OC[C@H](Cc1c[nH]c2ccccc12)NC(=O)c1ccc(Br)cc1Cl` came in with a 50% inhibitory concentration (IC50) of 114 nM. In turn, `COc1cc(/C=C/C(=O)NO)ccc1OC[C@H](Cc1c[nH]c2ccccc12)NC(=O)c1ccccc1Cl` registered an IC50 of 22.5 nM.

The next assay has as its system MOLT-4. As to the kind of experiment: Antiproliferative activity against human MOLT4 cells after 48 hrs by MTT assay. The class given is functional, cell-based. The settings on record: MOLT-4, 48 h. Background: Formazan colour is commonly taken as a measure of viable cells.
`COc1cc(/C=C/C(=O)NO)ccc1OC[C@H](Cc1c[nH]c2ccccc12)NC(=O)c1cccc(Cl)c1` displayed a half-maximal inhibitory concentration (IC50) of 60 nM. As to `COc1ccc(C(=O)N[C@H](COc2ccc(/C=C/C(=O)NO)cc2OC)Cc2c[nH]c3ccccc23)cc1`, the 50% inhibitory concentration (IC50) was determined as 60 nM. Molecule `COc1cc(/C=C/C(=O)NO)ccc1OC[C@H](Cc1c[nH]c2ccccc12)NC(=O)c1ccc(Br)cc1` displayed a concentration for half-maximal inhibition (IC50) of 60 nM.

`COc1cc(/C=C/C(=O)NO)ccc1OC[C@H](Cc1c[nH]c2ccccc12)NC(=O)c1ccc(C)cc1` returned an IC50 of 40 nM.

For a further assay, the system named is K562. As to the kind of experiment: Antiproliferative activity against human K562 cells after 48 hrs by MTT assay. The settings on record: K562, 48 h. The class given is functional, cell-based.
`COc1cc(/C=C/C(=O)NO)ccc1OC[C@H](Cc1c[nH]c2ccccc12)NC(=O)c1cccc(Cl)c1` registered a half-maximal inhibitory concentration (IC50) of 280 nM. The molecule `COc1ccc(C(=O)N[C@H](COc2ccc(/C=C/C(=O)NO)cc2OC)Cc2c[nH]c3ccccc23)cc1` had an IC50 of 280 nM. Molecule `COc1cc(/C=C/C(=O)NO)ccc1OC[C@H](Cc1c[nH]c2ccccc12)NC(=O)c1ccc(Br)cc1` came in with an IC50 of 510 nM.

As for `COc1cc(/C=C/C(=O)NO)ccc1OC[C@H](Cc1c[nH]c2ccccc12)NC(=O)c1ccc(C)cc1`, 320 nM corresponded to half-maximal inhibition (IC50).

A further assay has as its target Histone deacetylase 2 (Homo sapiens, UniProt Q92769). As to the kind of experiment: Inhibition of HDAC2 (unknown origin) using Ac-Leu-GlyLys(Ac)-AMC as substrate preincubated for 5 mins followed by substrate addition measured after 30 mins by fluorescence assay.
Conditions: not given
`COc1ccc(C(=O)N[C@H](COc2ccc(/C=C/C(=O)NO)cc2OC)Cc2c[nH]c3ccccc23)cc1` had an IC50 of 59.5 nM.

The test system of the next assay is HeLa. As to the kind of experiment: Antiproliferative activity against human HeLa cells after 48 hrs by MTT assay. The class given is functional, cell-based.
Conditions: not given
For `COc1cc(/C=C/C(=O)NO)ccc1OC[C@H](Cc1c[nH]c2ccccc12)NC(=O)c1cccc(Cl)c1`, the IC50 is 430 nM. With `COc1ccc(C(=O)N[C@H](COc2ccc(/C=C/C(=O)NO)cc2OC)Cc2c[nH]c3ccccc23)cc1`, half-maximal inhibition (IC50) required 430 nM. For the molecule `COc1cc(/C=C/C(=O)NO)ccc1OC[C@H](Cc1c[nH]c2ccccc12)NC(=O)c1ccc(Br)cc1`, it took 580 nM to reach half-maximal inhibition (IC50).

Molecule `COc1cc(/C=C/C(=O)NO)ccc1OC[C@H](Cc1c[nH]c2ccccc12)NC(=O)c1ccc(C)cc1` showed an IC50 of 310 nM.

The subject of the next assay is HEL. As to the kind of experiment: Antiproliferative activity against human HEL cells after 48 hrs by MTT assay.
Conditions: not given
The class given is functional, cell-based.
`COc1cc(/C=C/C(=O)NO)ccc1OC[C@H](Cc1c[nH]c2ccccc12)NC(=O)c1cccc(Cl)c1` had an IC50 of 130 nM. Molecule `COc1ccc(C(=O)N[C@H](COc2ccc(/C=C/C(=O)NO)cc2OC)Cc2c[nH]c3ccccc23)cc1` registered an IC50 of 130 nM.

The molecule `COc1cc(/C=C/C(=O)NO)ccc1OC[C@H](Cc1c[nH]c2ccccc12)NC(=O)c1ccc(Br)cc1` returned an IC50 of 210 nM. The molecule `COc1cc(/C=C/C(=O)NO)ccc1OC[C@H](Cc1c[nH]c2ccccc12)NC(=O)c1ccc(C)cc1` displayed an IC50 of 150 nM.

A further assay concerns the target T1, Protein deacetylase HDAC6 (Homo sapiens, UniProt Q9UBN7).
T1 sequence (Q9UBN7 whole entry): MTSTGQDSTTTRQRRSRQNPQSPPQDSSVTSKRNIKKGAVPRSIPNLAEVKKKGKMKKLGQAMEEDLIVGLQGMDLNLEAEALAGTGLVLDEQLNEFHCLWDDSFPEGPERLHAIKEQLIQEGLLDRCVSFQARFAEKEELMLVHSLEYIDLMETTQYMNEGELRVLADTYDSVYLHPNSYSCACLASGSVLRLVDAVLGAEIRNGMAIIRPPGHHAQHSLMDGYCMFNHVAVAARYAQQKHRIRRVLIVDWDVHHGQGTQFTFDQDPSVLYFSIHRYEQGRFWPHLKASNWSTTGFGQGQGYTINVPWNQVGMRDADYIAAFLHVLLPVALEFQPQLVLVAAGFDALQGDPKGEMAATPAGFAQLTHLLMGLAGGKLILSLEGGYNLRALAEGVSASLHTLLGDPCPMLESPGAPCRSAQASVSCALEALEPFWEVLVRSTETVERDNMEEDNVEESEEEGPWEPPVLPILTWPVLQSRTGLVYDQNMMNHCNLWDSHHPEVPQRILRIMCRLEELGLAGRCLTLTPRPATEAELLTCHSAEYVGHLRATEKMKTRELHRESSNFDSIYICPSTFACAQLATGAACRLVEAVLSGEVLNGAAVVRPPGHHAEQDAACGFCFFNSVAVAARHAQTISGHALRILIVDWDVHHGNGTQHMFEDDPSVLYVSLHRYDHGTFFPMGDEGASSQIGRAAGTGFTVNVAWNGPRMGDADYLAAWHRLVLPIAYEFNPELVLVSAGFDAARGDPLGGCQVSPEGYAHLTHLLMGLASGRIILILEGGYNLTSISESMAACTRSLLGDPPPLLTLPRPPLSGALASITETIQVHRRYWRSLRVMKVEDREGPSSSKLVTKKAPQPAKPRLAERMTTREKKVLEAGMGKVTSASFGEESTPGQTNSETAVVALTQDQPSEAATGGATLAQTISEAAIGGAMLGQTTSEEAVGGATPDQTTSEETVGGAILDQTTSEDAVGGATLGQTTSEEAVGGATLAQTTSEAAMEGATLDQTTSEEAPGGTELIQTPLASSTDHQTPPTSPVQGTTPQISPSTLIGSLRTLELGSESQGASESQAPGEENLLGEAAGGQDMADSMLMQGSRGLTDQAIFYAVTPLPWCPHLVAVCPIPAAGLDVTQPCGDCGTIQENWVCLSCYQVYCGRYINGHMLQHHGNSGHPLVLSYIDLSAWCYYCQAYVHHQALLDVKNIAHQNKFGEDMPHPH
As to the kind of experiment: Inhibition of HDAC6 (unknown origin) using Ac-Leu-GlyLys(Ac)-AMC as substrate preincubated for 5 mins followed by substrate addition measured after 30 mins by fluorescence assay.
Conditions: not given
Molecule `COc1ccc(C(=O)N[C@H](COc2ccc(/C=C/C(=O)NO)cc2OC)Cc2c[nH]c3ccccc23)cc1` gave an IC50 of 87 nM.

A further assay concerns the target Histone deacetylase 1 (Homo sapiens, UniProt Q13547). As to the kind of experiment: Inhibition of HDAC1 (unknown origin) using Ac-Leu-GlyLys(Ac)-AMC as substrate preincubated for 5 mins followed by substrate addition measured after 30 mins by fluorescence assay.
Conditions: not given
Regarding `COc1ccc(C(=O)N[C@H](COc2ccc(/C=C/C(=O)NO)cc2OC)Cc2c[nH]c3ccccc23)cc1`, the half-inhibitory concentration (IC50) was found to be 17.5 nM.

The test system of the next assay is PC-3. As to the kind of experiment: Antiproliferative activity against human PC3 cells after 48 hrs by MTT assay. The class given is functional, cell-based. To be noted: PC-3, 48 h.
For `COc1cc(/C=C/C(=O)NO)ccc1OC[C@H](Cc1c[nH]c2ccccc12)NC(=O)c1cccc(Cl)c1`, it took 1000 nM to reach half-maximal inhibition (IC50). `COc1ccc(C(=O)N[C@H](COc2ccc(/C=C/C(=O)NO)cc2OC)Cc2c[nH]c3ccccc23)cc1` yielded an IC50 of 1000 nM. Take `COc1cc(/C=C/C(=O)NO)ccc1OC[C@H](Cc1c[nH]c2ccccc12)NC(=O)c1ccc(Br)cc1`: inhibition was half-maximal at 1250 nM (IC50). Molecule `COc1cc(/C=C/C(=O)NO)ccc1OC[C@H](Cc1c[nH]c2ccccc12)NC(=O)c1ccc(C)cc1` yielded an IC50 of 1090 nM.
